Results published in PubChem BioAssay (NCI).
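Cultured in 96-well plates, cells were exposed to test compound for 48 hours across five concentrations. Here, GI50 denotes the concentration required for 50% inhibition of growth. Definition used: TGI = concentration required for complete inhibition of growth.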

Experiments:
Experiment in all cases: inhibition of tumour cell growth, NCI panel, 48 h
[1] = tested on: A549 NSCLC
[2] = tested on: DU-145 prostate
[3] = tested on: EKVX NSCLC
[4] = tested on: HT29 colon
[5] = tested on: NCI/ADR-RES ovarian
[6] = tested on: PC-3 prostate
[7] = tested on: SF-295 CNS
[8] = tested on: SR leukemia
[9] = tested on: T-47D breast
[10] = tested on: U251 CNS

Row | Structure (SMILES) | GI50 [1] [µM] | TGI [1] [µM] | GI50 [2] [µM] | TGI [2] [µM] | GI50 [3] [µM] | TGI [3] [µM] | GI50 [4] [µM] | TGI [4] [µM] | GI50 [5] [µM] | TGI [5] [µM] | GI50 [6] [µM] | TGI [6] [µM] | GI50 [7] [µM] | TGI [7] [µM] | GI50 [8] [µM] | TGI [8] [µM] | GI50 [9] [µM] | TGI [9] [µM] | GI50 [10] [µM] | TGI [10] [µM]
1 | COc1cc(C(=O)/C=C/c2c(-c3ccc(F)cc3)nc3sc(C)cn23)cc(OC)c1OC | 9.34 | > 100 | 7.52 | > 100 | 2.29 | > 100 | 6.96 | > 100 | 2.63 | 15.8 | 2.41 | > 100 | 2.33 | 26.7 | 0.802 | > 100 | 2.93 | > 100 | 4.07 | > 100
2 | COc1ccc(Nc2ccnc(NCCNc3ccnc4cc(Cl)ccc34)n2)cc1 | 3.67 | 13.7 | 5.03 | 17.6 | – | – | 0.546 | 8.28 | 3.9 | 16.9 | 1.85 | 16 | 1.03 | 2.78 | 2.12 | 7.51 | 1.61 | 5.72 | 1.69 | 5.22
3 | O=C1c2ccccc2-c2c1c1ccc([N+](=O)[O-])cc1c(=O)n2CCNCCCNCCn1c2c(c3ccc([N+](=O)[O-])cc3c1=O)C(=O)c1ccccc1-2 | 0.521 | 17.6 | 0.96 | 21.1 | 4.87 | 28.2 | 0.0105 | 5.52 | 0.923 | 25.9 | 0.547 | 9.18 | 0.0715 | 19.9 | 0.005 | 18.8 | 2.07 | 11.3 | 0.166 | 3.63
4 | CO/C(=N\N=C\c1ccc(Cl)cc1Cl)c1ccncc1 | – | > 10 | – | > 10 | – | > 10 | – | > 10 | – | > 10 | – | > 10 | – | > 10 | – | > 10 | – | > 10 | – | > 10
5 | C=C1C(=O)O[C@H]2[C@H]1CC/C(CNC(=O)/C=C/c1cccc(OC)c1)=C\CC[C@@]1(C)O[C@@H]21 | 5.11 | 20.3 | 1.19 | 2.49 | 1.85 | 5.62 | 1.22 | 2.81 | 3.79 | 17.8 | 1.8 | 3.86 | 5.54 | 19.3 | 0.537 | 10.5 | – | – | 1.58 | 3.11
6 | COc1cc([C@@H]2c3cc4c(cc3C(Br)[C@H]3COC(=O)[C@H]23)OCO4)cc(OC)c1OC (some centres not stated) | 0.313 | > 100 | 0.252 | 0.646 | 0.533 | > 100 | 0.289 | 2.85 | – | – | 0.438 | > 100 | 0.0859 | – | 0.117 | > 100 | > 100 | > 100 | 0.296 | > 81.2
7 | CCCCCCOc1ccc(/C=N/NC(N)=S)cc1 | 31.8 | > 100 | 7.26 | > 100 | 2.83 | > 53.1 | 3.21 | > 100 | 3.4 | 18.3 | 4.07 | > 100 | – | – | 4.22 | > 100 | 2.39 | 18.2 | 7.96 | > 100
8 | N#Cc1cccc(C(=O)c2cnn(-c3ccc(F)cc3)c2N)c1 | > 25 | > 25 | > 25 | > 25 | – | – | > 25 | > 25 | > 25 | > 25 | > 25 | > 25 | > 20.1 | > 25 | > 25 | > 25 | > 25 | > 25 | 18.1 | > 25
9 | O=C1c2ccccc2-c2nccc3cc(Cl)nc1c23 | 5.15 | > 94.1 | – | – | 48.9 | > 100 | – | – | 5.16 | > 72.9 | 2.96 | > 100 | 4.61 | > 88.9 | 1.34 | 4.18 | 0.385 | 1.72 | 2.43 | 10.4
10 | Cc1cc(=O)c2cc(N=Cc3ccc([N+](=O)[O-])o3)ccc2o1 | – | > 100 | – | > 100 | – | > 100 | – | > 100 | – | > 100 | – | – | – | > 100 | – | > 100 | – | > 100 | – | > 100
11 | Cn1c(=O)c(Oc2cccc(F)c2)cc2cnc(NC3CCOCC3)nc21 | > 25 | > 25 | > 25 | > 25 | – | – | > 25 | > 25 | > 25 | > 25 | > 25 | > 25 | > 25 | > 25 | > 25 | > 25 | > 25 | > 25 | > 25 | > 25
12 | ON(CCc1ccncc1)Cc1ccccc1 | – | > 100 | – | > 100 | – | > 100 | – | > 100 | – | > 100 | – | – | – | > 100 | – | > 100 | – | > 100 | – | –
13 | N#Cc1c2ccccc2c2n1-c1ccccc1OC(c1ccccc1)C2=O (configuration not stated) | 3.11 | 29.3 | 6.1 | 26.3 | – | – | 4.1 | 14 | 3.2 | 12 | 2.77 | 13.5 | 3.42 | 34.4 | 3.69 | 15.6 | 3.28 | 15.6 | 3.17 | 15.7
14 | Cc1ccccc1S(=O)(=O)N1[C@H](c2ccc(Cl)cc2)C(C(=O)N[C@@H](Cc2ccccc2)C(N)=O)=C[C@@H]1C(C)(C)C | 3.43 | 13.1 | 8.26 | 20.4 | – | – | 3.49 | 10 | 6.69 | 21 | 2.39 | 12.2 | 2.8 | 10 | 3.91 | 15.4 | 5 | 20.2 | 5.28 | 12.1
15 | CCNC(=O)/C=C/CCC#Cc1ccc(-c2ccc(-c3cccs3)s2)s1 | – | > 100 | – | – | – | > 100 | – | > 100 | – | – | – | – | – | > 100 | – | > 100 | – | – | – | > 100
